From US9499495B2, “Quinazolines and azaquinazolines as dual inhibitors of RAS/RAF/MEK/ERK and PI3K/AKT/PTEN/mTOR pathways” (Asana Biosciences, LLC, priority 2013, dated 2016)

Columns and labels:
B-RAFV600E = target: T1, B-RAFV600E (Homo sapiens, UniProt P15056, V600E); experiment: B-RAFV600E radiometric assay; type: biochemical; settings: read-out: Kinase assay B-Raf
T1 construct: purchased Millipore, USA 14-557
Summary of the method: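 B-RAFV600E was preincubated 45 min at rt with compound in 1% DMSO. MEK-K97M (0.5 μg), 5 μM final cold ATP and [γ-32P]ATP were then added for 2 h at rt. Phosphorylated MEK was captured on P81 paper and scintillation-counted; IC50 came from a sigmoidal dose-response fit.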

mTOR kinase = target: T2, mTOR kinase (Homo sapiens, UniProt P42345); experiment: mTOR kinase TR-FRET assay; type: biochemical
T2 construct: purchased Millipore, US
Summary of the method: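 TR-FRET with ULight-p70 S6K (Thr 389) peptide (50 nM) and 20 μM ATP in 50 mM HEPES pH 7.5, 1 mM EGTA, 3 mM MnCl2; compound pre-incubated with enzyme before substrate addition, reaction at rt, EDTA-stopped. Eu anti-phospho antibody read 665/615 nm; IC50 from sigmoidal dose-response fit.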

pERK in A375 cells = experiment: In Cell Western (ICW) assay, pERK in A375 cells; type: cell-based; settings: Homo sapiens, A-375, 3 h treatment
Summary of the method: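 RKO or A375 cells were exposed to compounds for 3 h at 37 °C, then fixed and stained in-cell with antibodies to pERK1/2 (T202/Y204), pS6RP or pAKT T308, followed by a Eu-labelled secondary. Time-resolved fluorescence (340/615 nm) was normalized to Hoechst, and IC50 values were fitted sigmoidally against DMSO as 0% inhibition.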

A375 cells = experiment: XTT assay for cell viability, A375 cells; type: cell-based; settings: Homo sapiens, A-375, 72 h
Summary of the method: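 RKO and A375 cells seeded at 1000-2000/well overnight, then exposed to compound for 72 h at 37° C., 5% CO2. XTT (1 mg/ml)/PMS (25 μM) added for 2-3 h; absorbance at 450 nm. Growth relative to DMSO control (100%); GI50 from sigmoidal dose-response fit.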

pERK in RKO cells = experiment: In Cell Western (ICW) assay, pERK in RKO cells; type: cell-based; settings: Homo sapiens, 3 h treatment
Method: (§1) Cell lines A375, A2058 and RKO obtained from the ATCC as provided above, were grown, and after attaining ˜80% confluency were trypsinized, centrifuged and resuspended in fresh media. The cells were seeded at the specified density (20,000 to 50,000) in a 96-well format black-well clear bottom plate (Corning) and incubated overnight at 37° C. in a 5% CO2 incubator. The next day, compound dilutions of test compounds were prepared in 100% DMSO followed by dilutions in respective media. Treatment of test compounds was performed for 3 h at 37° C. in 5% CO2 incubator. Following 3 h drug treatment, the conditional media was discarded and the cells were washed once with cPBS (PBS containing 0.1% magnesium chloride hexahydrate and 0.1% anhydrous calcium chloride) and fixed with 4% paraformaldehyde in cPBS for 1 h at rt. After fixing, the cells were given three washes using cPBST (cPBS containing 0.1% Triton™ X-100 reagent) and then blocked using blocking solution (5% skimmed milk powder or 5% BSA prepared in cPBST) for 2 h at rt with shaking at 300 rpm. The cells were again washed thrice with cPBST and incubated with primary antibody phospho-p44/42 MAPK(Erk1/2)(Thr202/204) antibody (Cell Signaling, Catalog # 9101L), phospho S6 ribosomal protein (Cell Signaling, Catalog #4858L), phospho AKT (Thr 308) (Cell Signaling, Catalog #9275) or phospho AKT (Ser 473) (Cell Signaling, Catalog #4060L) in specified dilutions (1:500-1:2500), prepared in respective blocking solutions, in a racker overnight at 4° C. The next day, the cells were washed with 1× Delfia® wash buffer (4×1 wash) and incubated with secondary antibody (Delfia®-Eu-N1 labeled anti-rabbit antibody; PerkinElmer, Catalog #AD0105; dilutions: 1:2000 to 1:6000 in Delfia® assay buffer (PerkinElmer, Catalog #1244-111)) for 2 h at rt in the dark at 300 rpm. The cells were then given four washes with 1× Delfia® wash buffer and incubated with Wallac Delfia® Enhancement solution (100 μL; PerkinElmer, Catalog #1244-105) for 20 min at rt in the dark at 300 rpm. The fluorescence emission was then read at 615 nm with an excitation wavelength of 340 nm using a Victor V5 Fluorometer (Perkin Elmer, US). The cells were then washed once with 1×cPBS and incubated with 100 μL of 0.5 mg/mL of Hoechst 33258 dye prepared in cPBS and read at 460 nm with 355 nm excitation, thereby evaluating the correction factor.
(§2) The % inhibition for the test compounds of formula (I) (new chemical entities (NCEs)) was calculated keeping DMSO control as 0% and the IC50 values were determined using sigmoidal dose response curve fit in GraphPad Prism® v5 software.

RKO cells = experiment: XTT assay for cell viability, RKO cells; type: cell-based; settings: Homo sapiens, 72 h
Method: Cell lines (A375 ATCC No. CRL-1619, A2058 ATCC No. CRL-11147 and RKO ATCC No. CRL-2577, American Type Culture Collection (ATCC), Manassas Va.) once attaining ˜80% confluency were trypsinized, centrifuged and resuspended in fresh media. Cells (1000-2000/per well) were seeded in 96-well plate and incubated over-night at 37° C. in a 5% CO2 incubator. Compound dilutions were prepared in 100% DMSO followed by dilutions in the respective media. The cells were treated with NCEs for 72 h at 37° C. in 5% CO2 incubator. After 72 h, freshly prepared XTT (1 mg/ml)/PMS (25 μM) solution was added, incubated for 2 to 3 h at 37° C. and the absorbance was measured at 450 nm using an ELISA plate reader. Keeping DMSO control as 100%, the effect of the compound to inhibit the cell proliferation was calculated and the GI50 values were determined using sigmoidal dose response curve fit in GraphPad Prism® v5 software.

pS6RP in RKO cells = experiment: In Cell Western (ICW) assay, pS6RP in RKO cells; type: cell-based; settings: Homo sapiens, 3 h treatment
Method: as §1, §2

PI3Kα = target: T3, PI3Kα (Homo sapiens, UniProt P42336); experiment: PI3 Kinase alpha TR-FRET assay; type: biochemical
T3 construct: made in house; host or cells: SF9 cells
Method: Compound inhibition for PI3Kα was determined in a homogeneous TR-FRET assay using a PI3Kα assay kit (Millipore, US, Catalog #33-016). The PI3 kinase catalyzes phosphorylation of […] (PIP2) to phosphatidylinositol 3,4,5-trisphosphate (PIP3) in the presence of ATP and Mg^2+. The PIP3 product is detected by displacement of biotin-PIP3 from an energy transfer complex consisting of Europium labeled anti-GST monoclonal antibody, a GST-tagged pleckstrin homology (PH) domain, biotinylated PIP3 and Streptavidin-Allophycocyanin (APC). Excitation of Europium in the complex results in an energy transfer to the APC and a fluorescence emission at 665 nm.
Compounds tested were dissolved in DMSO and directly distributed into 384-well plates at a volume of 0.5 μL. P110/P85a/PIP2 mixture (14.5 μL) was added to compound wells and incubated for 30 min at rt […]. P110/P85a was expressed in SF9 cells and purified in-house. 5 ng P110/P85a was used in the assay. The kinase reaction was started by the addition of ATP. The assay concentrations of both PIP2 and ATP were 40 μM. The reaction mixture was incubated for 30 min and was terminated by the addition of stop mix and detection mix. Fluorescence was measured at 615 and 665 nm upon excitation at 340 nm in a Victor V5 fluorometer (Perkin Elmer, US). The fluorescence emission ratio at 665 to 615 nm, proportional to the kinase activity, was plotted against the compound concentration to generate dose-response curves and IC50 values were determined.

T2 sequence (P42345 1362-2549 limits assumed): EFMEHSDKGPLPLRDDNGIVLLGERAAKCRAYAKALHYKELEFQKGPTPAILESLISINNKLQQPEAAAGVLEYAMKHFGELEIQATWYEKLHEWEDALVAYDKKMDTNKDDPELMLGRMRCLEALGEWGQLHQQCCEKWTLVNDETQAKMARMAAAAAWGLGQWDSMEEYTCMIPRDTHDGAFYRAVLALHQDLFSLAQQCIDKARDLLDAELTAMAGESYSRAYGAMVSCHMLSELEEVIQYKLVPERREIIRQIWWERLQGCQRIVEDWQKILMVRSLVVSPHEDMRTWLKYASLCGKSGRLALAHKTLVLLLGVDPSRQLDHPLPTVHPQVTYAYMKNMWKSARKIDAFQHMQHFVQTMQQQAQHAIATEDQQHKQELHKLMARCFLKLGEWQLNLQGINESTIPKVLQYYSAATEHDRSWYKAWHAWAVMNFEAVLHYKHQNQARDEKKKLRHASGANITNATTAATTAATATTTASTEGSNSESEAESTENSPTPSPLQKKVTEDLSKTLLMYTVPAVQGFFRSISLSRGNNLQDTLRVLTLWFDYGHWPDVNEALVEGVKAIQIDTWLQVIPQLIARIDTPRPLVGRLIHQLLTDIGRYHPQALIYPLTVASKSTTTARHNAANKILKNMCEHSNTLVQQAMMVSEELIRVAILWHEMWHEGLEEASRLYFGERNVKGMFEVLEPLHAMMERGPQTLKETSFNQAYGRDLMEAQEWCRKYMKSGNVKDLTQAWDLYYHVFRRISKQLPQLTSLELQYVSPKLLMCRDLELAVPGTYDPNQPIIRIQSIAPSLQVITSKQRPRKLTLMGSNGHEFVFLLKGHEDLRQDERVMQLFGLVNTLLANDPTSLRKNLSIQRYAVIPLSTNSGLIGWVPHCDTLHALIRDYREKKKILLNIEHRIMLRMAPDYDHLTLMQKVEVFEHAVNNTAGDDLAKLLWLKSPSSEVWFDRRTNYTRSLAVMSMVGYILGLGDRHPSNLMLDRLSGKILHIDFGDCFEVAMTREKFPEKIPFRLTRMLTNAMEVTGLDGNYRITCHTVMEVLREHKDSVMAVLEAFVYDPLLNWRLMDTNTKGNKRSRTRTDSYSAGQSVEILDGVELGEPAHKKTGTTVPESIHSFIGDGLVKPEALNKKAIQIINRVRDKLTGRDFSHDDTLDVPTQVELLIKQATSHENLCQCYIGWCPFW
T1 sequence (P15056 416-766 V600E limits assumed): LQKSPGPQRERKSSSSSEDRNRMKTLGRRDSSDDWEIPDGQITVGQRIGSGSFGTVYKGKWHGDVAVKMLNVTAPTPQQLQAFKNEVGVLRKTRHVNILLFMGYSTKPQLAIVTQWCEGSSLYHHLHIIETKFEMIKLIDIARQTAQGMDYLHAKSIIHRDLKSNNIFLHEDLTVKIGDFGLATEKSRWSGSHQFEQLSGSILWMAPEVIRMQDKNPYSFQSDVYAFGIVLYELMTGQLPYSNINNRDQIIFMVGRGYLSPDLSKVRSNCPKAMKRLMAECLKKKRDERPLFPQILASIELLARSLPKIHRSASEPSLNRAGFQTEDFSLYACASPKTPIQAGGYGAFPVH
T3 sequence (P42336 whole entry, species assumed): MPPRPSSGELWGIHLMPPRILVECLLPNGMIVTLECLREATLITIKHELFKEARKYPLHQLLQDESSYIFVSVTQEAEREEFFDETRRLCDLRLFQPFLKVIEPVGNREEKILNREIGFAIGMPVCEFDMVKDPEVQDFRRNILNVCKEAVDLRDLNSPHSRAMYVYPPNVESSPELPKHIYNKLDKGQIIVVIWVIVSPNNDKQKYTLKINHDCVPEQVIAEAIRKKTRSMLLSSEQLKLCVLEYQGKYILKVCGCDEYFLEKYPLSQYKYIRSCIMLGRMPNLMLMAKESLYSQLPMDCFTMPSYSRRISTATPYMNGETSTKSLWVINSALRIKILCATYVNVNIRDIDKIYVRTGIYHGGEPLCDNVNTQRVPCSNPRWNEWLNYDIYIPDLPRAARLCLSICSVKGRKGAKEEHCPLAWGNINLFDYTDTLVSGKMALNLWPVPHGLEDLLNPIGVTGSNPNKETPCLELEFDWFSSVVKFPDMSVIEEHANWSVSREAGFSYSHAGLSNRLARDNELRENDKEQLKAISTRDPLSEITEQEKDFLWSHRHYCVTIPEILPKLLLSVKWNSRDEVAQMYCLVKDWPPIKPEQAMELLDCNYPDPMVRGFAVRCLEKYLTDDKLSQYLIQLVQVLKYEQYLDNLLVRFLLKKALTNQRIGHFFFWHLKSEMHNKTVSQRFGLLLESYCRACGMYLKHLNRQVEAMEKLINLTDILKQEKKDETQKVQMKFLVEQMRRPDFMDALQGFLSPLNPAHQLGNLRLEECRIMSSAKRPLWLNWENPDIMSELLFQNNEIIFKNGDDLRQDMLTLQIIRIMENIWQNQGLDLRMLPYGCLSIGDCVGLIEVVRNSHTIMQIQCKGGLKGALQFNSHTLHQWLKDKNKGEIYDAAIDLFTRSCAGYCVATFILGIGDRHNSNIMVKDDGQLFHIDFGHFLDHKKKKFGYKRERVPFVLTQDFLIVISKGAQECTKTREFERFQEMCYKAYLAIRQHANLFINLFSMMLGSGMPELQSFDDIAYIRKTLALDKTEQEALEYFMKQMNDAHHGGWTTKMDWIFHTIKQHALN
T3 sequence (P27986 whole entry partner, species assumed): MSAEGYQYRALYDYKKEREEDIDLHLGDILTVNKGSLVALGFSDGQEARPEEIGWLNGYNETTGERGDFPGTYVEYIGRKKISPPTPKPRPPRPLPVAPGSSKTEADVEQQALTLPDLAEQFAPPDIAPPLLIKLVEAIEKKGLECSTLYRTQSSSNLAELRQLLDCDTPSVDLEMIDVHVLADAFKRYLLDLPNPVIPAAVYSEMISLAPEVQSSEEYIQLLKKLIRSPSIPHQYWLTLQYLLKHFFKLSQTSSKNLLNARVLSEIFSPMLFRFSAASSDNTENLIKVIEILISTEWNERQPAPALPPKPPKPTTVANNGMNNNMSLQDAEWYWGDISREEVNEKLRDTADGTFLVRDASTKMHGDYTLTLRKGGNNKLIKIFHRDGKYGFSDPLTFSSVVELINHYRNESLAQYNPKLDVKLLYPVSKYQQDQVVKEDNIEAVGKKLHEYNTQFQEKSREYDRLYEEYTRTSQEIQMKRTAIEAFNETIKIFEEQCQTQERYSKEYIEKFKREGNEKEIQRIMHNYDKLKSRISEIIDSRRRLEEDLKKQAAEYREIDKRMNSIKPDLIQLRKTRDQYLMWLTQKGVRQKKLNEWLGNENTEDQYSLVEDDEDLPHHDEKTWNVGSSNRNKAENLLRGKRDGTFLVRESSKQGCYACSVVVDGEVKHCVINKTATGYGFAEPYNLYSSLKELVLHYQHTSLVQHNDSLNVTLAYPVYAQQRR

Row | SMILES | IC50 (B-RAFV600E) | IC50 (mTOR kinase) | IC50 (pERK in A375 cells) | IC50 (A375 cells) | IC50 (pERK in RKO cells) | IC50 (RKO cells) | IC50 (pS6RP in RKO cells) | IC50 (PI3Kα)
1 | CNC(=O)Nc1ccc(-c2nc(N3CCOCC3)c3cc(-c4cccc(NS(=O)(=O)c5c(F)cccc5F)c4F)cc(OC)c3n2)cc1 [Example 1, 2,6-Difluoro-N-(2-fluoro-3-(8-methoxy-2-(4-(3-methylureido)phenyl)-4-morpholinoquinazolin-6-yl)phenyl)benzenesulfonamide] | 1 to 100 nM | 1 to 100 nM | 100 to 1000 nM | 100 to 1000 nM | 100 to 1000 nM | 1000 to 10000 nM |  | 
2 | COc1cc(-c2cccc(NS(=O)(=O)CCCF)c2F)cc2c(N3CCOCC3)nc(-c3cnc4[nH]ccc4c3)nc12 [Example 40, 3-fluoro-N-(2-fluoro-3-(8-methoxy-4-morpholino-2-(1H-pyrrolo[2,3-b]pyridin-5-yl)quinazolin-6-yl)phenyl)propane-1-sulfonamide] | 1 to 100 nM | 1 to 100 nM | 1 to 100 nM | 100 to 1000 nM |  |  | 100 to 1000 nM | 
3 | CC(C)Oc1cc(-c2cccc(NS(=O)(=O)CCCF)c2F)cc2c(N3CCOC[C@H]3C)nc(-c3cnc(N)nc3)nc12 [Example 64, (R)-N-(3-(2-(2-aminopyrimidin-5-yl)-8-isopropoxy-4-(3-methylmorpholino)quinazolin-6-yl)-2-fluorophenyl)-3-fluoropropane-1-sulfonamide] | 1 to 100 nM | 100 to 1000 nM | 1 to 100 nM | 1 to 100 nM |  |  | 100 to 1000 nM | 
4 | CCOc1cc(-c2cccc(NS(=O)(=O)CCCF)c2F)cc2c(N3CCOC[C@@H]3C)nc(-c3ccc(N)nc3)nc12 [Example 65, (S)-N-(3-(2-(6-aminopyridin-3-yl)-8-ethoxy-4-(3-methylmorpholino)quinazolin-6-yl)-2-fluorophenyl)-3-fluoropropane-1-sulfonamide] | 1 to 100 nM | 1 to 100 nM | 1 to 100 nM | 100 to 1000 nM |  | 100 to 1000 nM | 100 to 1000 nM | 
5 | COCCOc1cc(-c2cccc(NS(=O)(=O)CCCF)c2F)cc2c(N3CCOCC3)nc(-c3ccc(N)nc3)nc12 [Example 67, N-(3-(2-(6-aminopyridin-3-yl)-8-(2-methoxyethoxy)-4-morpholinoquinazolin-6-yl)-2-fluorophenyl)-3-fluoropropane-1-sulfonamide] | 1 to 100 nM | 1 to 100 nM | 100 to 1000 nM |  |  | 1 to 100 nM | 100 to 1000 nM | 
6 | COCCOc1cc(-c2cccc(NS(=O)(=O)CCCF)c2F)cc2c(N3CCOCC3)nc(-c3cnc(N)nc3)nc12 [Example 68, N-(3-(2-(2-aminopyrimidin-5-yl)-8-(2-methoxyethoxy)-4-morpholinoquinazolin-6-yl)-2-fluorophenyl)-3-fluoropropane-1-sulfonamide] | 1 to 100 nM | 1 to 100 nM | 1 to 100 nM |  |  | 100 to 1000 nM | 100 to 1000 nM | 
7 | Nc1cc(C(F)(F)F)c(-c2nc(N3CCOCC3)c3nc(-c4cccc(NS(=O)(=O)c5cc(F)ccc5F)c4F)ccc3n2)cn1 [Example 104, N-(3-(2-(6-amino-4-(trifluoromethyl)pyridin-3-yl)-4-morpholinopyrido[3,2-d]pyrimidin-6-yl)-2-fluorophenyl)-2,5-difluorobenzenesulfonamide] | 1 to 100 nM |  | 1 to 100 nM | 1 to 100 nM | 100 to 1000 nM |  |  | 1 to 100 nM
8 | CNc1ncc(-c2nc(N3CCOC[C@H]3C)c3cc(-c4cccc(NS(=O)(=O)CCCF)c4F)cc(OC)c3n2)cn1 [Example 136, (R)-3-fluoro-N-(2-fluoro-3-(8-methoxy-2-(2-(methylamino)pyrimidin-5-yl)-4-(3-methylmorpholino)quinazolin-6-yl)phenyl)propane-1-sulfonamide] | 1 to 100 nM | 100 to 1000 nM |  |  | 1 to 100 nM | 100 to 1000 nM |  | 
9 | CCOc1cc(-c2cccc(NS(=O)(=O)CCCF)c2F)cc2c(N3CCOC[C@H]3C)nc(-c3cnc(N)nc3)nc12 [Example 137, (R)-N-(3-(2-(2-aminopyrimidin-5-yl)-8-ethoxy-4-(3-methylmorpholino)quinazolin-6-yl)-2-fluorophenyl)-3-fluoropropane-1-sulfonamide] | 1 to 100 nM | 100 to 1000 nM | 1 to 100 nM | 100 to 1000 nM | 1 to 100 nM | 1 to 100 nM |  | 
10 | C[C@@H]1COCCN1c1nc(-c2cnc(N)cc2F)nc2ccc(-c3cccc(NS(=O)(=O)CCCF)c3F)nc12 [Example 140, (R)-N-(3-(2-(6-amino-4-fluoropyridin-3-yl)-4-(3-methylmorpholino)pyrido[3,2-d]pyrimidin-6-yl)-2-fluorophenyl)-3-fluoropropane-1-sulfonamide] | 1 to 100 nM | 100 to 1000 nM | 100 to 1000 nM | 100 to 1000 nM | 1 to 100 nM | 100 to 1000 nM |  | 
